According to PMC3961306, “Comparison of the Cancer Gene Targeting and Biochemical Selectivities of All Targeted Kinase Inhibitors Approved for Clinical Use” (PLoS ONE, 2014):
Like-named read-outs stand apart in the source and are kept apart here.

Columns and labels:
Assay in all cases: Kinase profiling in a biochemical assay panel (mobility shift assays and ELISA), %-inhibition at 1 μM; selectivity entropy
[1] = target: panel of more than 300 wild-type and mutant kinases (313 kinase panel) (Homo sapiens, UniProt P06241)
Chain of panel of more than 300 wild-type and mutant kinases (313 kinase panel) (Homo sapiens, UniProt P06241) (P06241 whole entry, change not shown): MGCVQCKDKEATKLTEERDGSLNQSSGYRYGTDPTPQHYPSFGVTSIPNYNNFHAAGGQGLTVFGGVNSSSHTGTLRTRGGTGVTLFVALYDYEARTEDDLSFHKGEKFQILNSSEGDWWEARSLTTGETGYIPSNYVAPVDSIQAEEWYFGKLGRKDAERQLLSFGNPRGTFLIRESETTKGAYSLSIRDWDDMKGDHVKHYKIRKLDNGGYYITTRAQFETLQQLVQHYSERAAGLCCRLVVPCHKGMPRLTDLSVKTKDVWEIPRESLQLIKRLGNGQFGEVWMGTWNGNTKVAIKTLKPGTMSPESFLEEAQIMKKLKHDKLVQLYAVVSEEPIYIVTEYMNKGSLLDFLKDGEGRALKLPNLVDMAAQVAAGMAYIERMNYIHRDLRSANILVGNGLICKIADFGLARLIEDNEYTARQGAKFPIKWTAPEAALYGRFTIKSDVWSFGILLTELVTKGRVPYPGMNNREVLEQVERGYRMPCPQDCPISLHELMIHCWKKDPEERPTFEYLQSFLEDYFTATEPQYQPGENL

[2] = target: panel of more than 300 wild-type and mutant kinases (313 kinase panel) (Homo sapiens, UniProt P07333); details: kinase FMS; compound at 1 μM
[3] = target: panel of more than 300 wild-type and mutant kinases (313 kinase panel) (Homo sapiens, UniProt P42685)
Chain of panel of more than 300 wild-type and mutant kinases (313 kinase panel) (Homo sapiens, UniProt P42685) (P42685 whole entry, change not shown): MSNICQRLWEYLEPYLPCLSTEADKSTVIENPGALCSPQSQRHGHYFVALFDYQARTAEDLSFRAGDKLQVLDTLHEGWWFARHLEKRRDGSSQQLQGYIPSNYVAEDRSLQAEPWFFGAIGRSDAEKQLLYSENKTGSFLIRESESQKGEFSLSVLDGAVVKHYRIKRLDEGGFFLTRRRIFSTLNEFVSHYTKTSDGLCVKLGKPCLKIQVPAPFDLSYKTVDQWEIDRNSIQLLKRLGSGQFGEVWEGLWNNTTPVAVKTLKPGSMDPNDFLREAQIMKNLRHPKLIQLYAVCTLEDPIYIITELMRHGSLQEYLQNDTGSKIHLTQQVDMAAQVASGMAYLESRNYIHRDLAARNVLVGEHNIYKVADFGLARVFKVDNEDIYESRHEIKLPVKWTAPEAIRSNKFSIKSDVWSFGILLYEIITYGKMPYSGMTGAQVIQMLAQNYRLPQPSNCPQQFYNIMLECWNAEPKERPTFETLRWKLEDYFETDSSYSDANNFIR

[4] = target: panel of more than 300 wild-type and mutant kinases (313 kinase panel) (Homo sapiens, UniProt Q15208)
Chain of panel of more than 300 wild-type and mutant kinases (313 kinase panel) (Homo sapiens, UniProt Q15208) (Q15208 whole entry, change not shown): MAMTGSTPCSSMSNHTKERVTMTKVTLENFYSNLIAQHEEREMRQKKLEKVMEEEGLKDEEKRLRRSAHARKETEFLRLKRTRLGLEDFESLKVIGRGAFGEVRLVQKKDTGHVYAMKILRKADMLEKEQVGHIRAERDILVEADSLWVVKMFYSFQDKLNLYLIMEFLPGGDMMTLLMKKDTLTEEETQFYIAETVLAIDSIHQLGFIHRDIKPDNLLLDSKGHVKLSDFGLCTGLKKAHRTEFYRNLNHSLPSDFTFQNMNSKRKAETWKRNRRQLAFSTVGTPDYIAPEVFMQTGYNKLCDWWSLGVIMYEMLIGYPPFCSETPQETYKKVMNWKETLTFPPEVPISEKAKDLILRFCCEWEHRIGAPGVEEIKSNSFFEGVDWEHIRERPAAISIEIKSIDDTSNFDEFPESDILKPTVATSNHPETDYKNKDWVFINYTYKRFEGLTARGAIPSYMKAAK

[5] = target: T1, panel of more than 300 wild-type and mutant kinases (313 kinase panel) (Homo sapiens, UniProt Q16832)
T1 sequence (Q16832 22-855): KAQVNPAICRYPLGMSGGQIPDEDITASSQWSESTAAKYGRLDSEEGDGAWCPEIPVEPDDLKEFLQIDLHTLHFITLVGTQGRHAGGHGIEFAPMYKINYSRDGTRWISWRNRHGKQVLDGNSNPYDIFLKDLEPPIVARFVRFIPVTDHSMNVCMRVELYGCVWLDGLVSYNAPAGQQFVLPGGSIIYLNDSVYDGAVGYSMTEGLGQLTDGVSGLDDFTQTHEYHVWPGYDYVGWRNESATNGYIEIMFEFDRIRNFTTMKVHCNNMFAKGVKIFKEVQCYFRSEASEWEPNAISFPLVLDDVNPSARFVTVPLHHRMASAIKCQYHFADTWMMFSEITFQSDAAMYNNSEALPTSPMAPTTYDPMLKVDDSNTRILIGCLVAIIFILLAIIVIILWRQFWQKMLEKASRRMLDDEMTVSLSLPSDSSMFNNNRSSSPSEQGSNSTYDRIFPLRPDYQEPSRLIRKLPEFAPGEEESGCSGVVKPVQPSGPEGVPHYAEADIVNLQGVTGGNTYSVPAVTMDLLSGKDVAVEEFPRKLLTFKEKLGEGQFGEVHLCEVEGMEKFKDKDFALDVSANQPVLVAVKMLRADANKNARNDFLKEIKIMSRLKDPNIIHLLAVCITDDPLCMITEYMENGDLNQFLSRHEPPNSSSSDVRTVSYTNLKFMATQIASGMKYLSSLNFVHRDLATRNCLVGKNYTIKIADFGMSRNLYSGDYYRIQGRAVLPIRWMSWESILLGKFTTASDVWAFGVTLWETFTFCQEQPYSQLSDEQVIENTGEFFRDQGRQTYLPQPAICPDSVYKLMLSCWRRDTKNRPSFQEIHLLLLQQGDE

[6] = target: panel of more than 300 wild-type and mutant kinases (313 kinase panel) (Homo sapiens, UniProt Q86Z02)
[7] = target: panel of more than 300 wild-type and mutant kinases (313 kinase panel) (Homo sapiens, UniProt Q9P0L2)
Chain of panel of more than 300 wild-type and mutant kinases (313 kinase panel) (Homo sapiens, UniProt Q9P0L2) (Q9P0L2 whole entry, change not shown): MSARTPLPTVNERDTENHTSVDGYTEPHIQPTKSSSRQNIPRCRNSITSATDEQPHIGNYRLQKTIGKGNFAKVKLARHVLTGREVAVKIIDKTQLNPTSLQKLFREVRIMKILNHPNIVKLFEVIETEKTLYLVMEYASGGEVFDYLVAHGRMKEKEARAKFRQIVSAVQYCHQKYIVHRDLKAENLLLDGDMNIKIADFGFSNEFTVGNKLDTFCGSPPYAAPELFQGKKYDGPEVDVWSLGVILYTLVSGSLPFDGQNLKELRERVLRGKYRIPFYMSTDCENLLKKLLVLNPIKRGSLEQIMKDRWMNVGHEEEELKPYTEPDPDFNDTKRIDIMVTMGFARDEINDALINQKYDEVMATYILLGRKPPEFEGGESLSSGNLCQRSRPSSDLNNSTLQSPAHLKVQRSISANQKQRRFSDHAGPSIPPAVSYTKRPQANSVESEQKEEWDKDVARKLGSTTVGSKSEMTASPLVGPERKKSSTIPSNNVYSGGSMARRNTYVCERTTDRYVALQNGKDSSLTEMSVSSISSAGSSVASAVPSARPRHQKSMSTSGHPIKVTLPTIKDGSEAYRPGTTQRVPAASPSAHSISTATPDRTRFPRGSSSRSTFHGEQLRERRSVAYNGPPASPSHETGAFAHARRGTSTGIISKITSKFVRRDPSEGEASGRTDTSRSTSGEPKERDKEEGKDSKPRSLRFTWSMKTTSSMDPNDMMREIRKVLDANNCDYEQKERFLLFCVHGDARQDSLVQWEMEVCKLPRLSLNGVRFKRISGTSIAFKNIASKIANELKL

[8] = test system: panel of more than 300 wild-type and mutant kinases (313 kinase panel)
[9] = target: panel of more than 300 wild-type and mutant kinases (313 kinase panel) (Homo sapiens, UniProt Q13554)
Chain of panel of more than 300 wild-type and mutant kinases (313 kinase panel) (Homo sapiens, UniProt Q13554) (Q13554 whole entry, change not shown): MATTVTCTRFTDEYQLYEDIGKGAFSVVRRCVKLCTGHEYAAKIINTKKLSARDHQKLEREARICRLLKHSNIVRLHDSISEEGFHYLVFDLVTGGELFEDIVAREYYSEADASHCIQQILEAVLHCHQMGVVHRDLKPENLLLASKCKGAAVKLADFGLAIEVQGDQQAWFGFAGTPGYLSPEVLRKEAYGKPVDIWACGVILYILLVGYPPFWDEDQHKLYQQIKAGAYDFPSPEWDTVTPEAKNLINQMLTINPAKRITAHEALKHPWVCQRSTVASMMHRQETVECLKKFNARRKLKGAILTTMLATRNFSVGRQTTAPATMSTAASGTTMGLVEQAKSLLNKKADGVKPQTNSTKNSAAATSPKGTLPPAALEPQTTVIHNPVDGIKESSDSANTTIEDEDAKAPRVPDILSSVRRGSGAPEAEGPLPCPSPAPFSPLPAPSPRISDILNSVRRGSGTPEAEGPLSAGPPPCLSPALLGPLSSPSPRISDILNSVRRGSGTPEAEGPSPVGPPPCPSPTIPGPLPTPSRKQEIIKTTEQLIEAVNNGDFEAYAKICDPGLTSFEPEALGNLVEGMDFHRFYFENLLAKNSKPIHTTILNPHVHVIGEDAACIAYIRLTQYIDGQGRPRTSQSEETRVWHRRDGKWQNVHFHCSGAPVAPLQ

[10] = target: T2, panel of more than 300 wild-type and mutant kinases (313 kinase panel) (Homo sapiens, UniProt Q06418)
T2 sequence (Q06418 41-890): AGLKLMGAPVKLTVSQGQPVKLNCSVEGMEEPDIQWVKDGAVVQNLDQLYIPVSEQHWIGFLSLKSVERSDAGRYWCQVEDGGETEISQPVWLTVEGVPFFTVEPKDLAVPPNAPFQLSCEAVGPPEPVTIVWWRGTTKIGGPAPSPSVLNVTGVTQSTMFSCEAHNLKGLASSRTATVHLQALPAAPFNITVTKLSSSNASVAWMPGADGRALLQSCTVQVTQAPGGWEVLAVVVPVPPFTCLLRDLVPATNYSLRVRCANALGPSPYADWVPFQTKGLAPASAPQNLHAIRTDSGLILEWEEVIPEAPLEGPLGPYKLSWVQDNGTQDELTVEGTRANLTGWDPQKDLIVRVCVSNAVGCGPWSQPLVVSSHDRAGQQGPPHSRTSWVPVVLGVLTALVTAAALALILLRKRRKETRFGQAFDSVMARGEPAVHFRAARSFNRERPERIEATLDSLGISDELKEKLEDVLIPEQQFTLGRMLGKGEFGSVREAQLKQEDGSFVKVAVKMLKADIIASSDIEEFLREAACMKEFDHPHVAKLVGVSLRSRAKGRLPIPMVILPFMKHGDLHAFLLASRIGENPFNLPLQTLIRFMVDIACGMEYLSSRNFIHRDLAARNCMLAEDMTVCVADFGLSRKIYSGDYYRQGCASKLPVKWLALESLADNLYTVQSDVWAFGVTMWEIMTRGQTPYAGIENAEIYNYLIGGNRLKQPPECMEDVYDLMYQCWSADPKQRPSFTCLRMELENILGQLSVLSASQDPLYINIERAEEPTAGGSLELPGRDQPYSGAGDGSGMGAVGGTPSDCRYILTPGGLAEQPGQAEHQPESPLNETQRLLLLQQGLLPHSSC

[11] = kinase EGFR(d746-750), compound at 1 μM
[12] = kinase EGFR(d746-750/T790M), compound at 1 μM
[13] = kinase EML4-ALK, compound at 1 μM

Structure (SMILES) | %-inhibition of FYN ([1]; kinase FYN, compound at 1 μM) [%] | %-inhibition of FMS [2] [%] | %-inhibition of FRK ([3]; kinase FRK, compound at 1 μM) [%] | %-inhibition of DDR2 ([5]; kinase DDR2, compound at 1 μM) [%] | %-inhibition of HIPK1 ([6]; kinase HIPK1, compound at 1 μM) [%] | %-inhibition of NPM1-ALK [8] [%] | %-inhibition of TAK1-TAB1 [8] [%] | %-inhibition of EGFR(d746-750) ([8]; 1 µM) [%] | %-inhibition of EGFR(d746-750/T790M) ([8]; 1 µM) [%] | %-inhibition of EML4-ALK ([8]; 1 µM) [%] | %-inhibition of LYNb ([8]; 1 µM) [%] | %-inhibition of PKCβ2 ([8]; 1 µM) [%] | %-inhibition of SRM ([8]; 1 µM) [%] | %-inhibition, CaMK2β ([9]; kinase CaMK2β, 1 μM compound) [%] | %-inhibition of NDR1 ([4]; kinase NDR1, 1 μM) [%] | %-inhibition of MARK1 ([7]; kinase MARK1, compound at 1 μM) [%] | %-inhibition of TYRO3 ([10]; kinase TYRO3, compound at 1 μM) [%] | further results
COc1cc(Nc2c(C#N)cnc3cc(OCCCN4CCN(C)CC4)c(OC)cc23)c(Cl)cc1Cl [bosutinib] | 95 | 93 | 94 | 96 | 3.32 | 66 | 83 | 100 | 92 | 54 | 94 | 22 | 58 | – | – | – | – | %-inhibition of NDR1 ([4]; 1 µM): -3.49%; %-inhibition of MARK1 ([7]; 1 µM): 31%
COc1cc2nccc(Oc3ccc(NC(=O)C4(C(=O)Nc5ccc(F)cc5)CC4)cc3)c2cc1OC [cabozantinib] | 91 | 54 | – | 99 | 31 | – | – | – | – | – | – | – | – | -4 | -5.4 | -1 | – | %-inhibition of EGFR(d746-750) [8, 11]: 51%; %-inhibition of EGFR(d746-750/T790M) [8, 12]: 43%; %-inhibition of EML4-ALK [8, 13]: 17%; %-inhibition of LYNb ([8]; kinase LYNb, compound at 1 μM): 97%; %-inhibition of NPM1-ALK ([8]; kinase NPM1-ALK, 1 μM): 10%; %-inhibition of PKCβ2 ([8]; kinase PKCβ2, 1 μM): -0.178%; %-inhibition of SRM ([8]; kinase SRM, 1 μM): 99%; %-inhibition of TAK1-TAB1 ([8]; kinase TAK1-TAB1, 1 μM): 4.37%
C[C@@H](Oc1cc(-c2cnn(C3CCNCC3)c2)cnc1N)c1c(Cl)ccc(F)c1Cl [crizotinib] | 42 | 92 | 26 | 88 | -7 | – | 5 | 2 | 8 | – | 34 | -1.6 | 1.51 | – | -1.48 | 27 | – | –
CC(C)(C)c1nc(-c2cccc(NS(=O)(=O)c3c(F)cccc3F)c2F)c(-c2ccnc(N)n2)s1 [dabrafenib] | – | 15 | 81 | 100 | 70 | – | – | – | – | – | – | – | – | -0.277 | -0.891 | -15 | – | %-inhibition of EGFR(d746-750) [8, 11]: -1.84%; %-inhibition of EGFR(d746-750/T790M) [8, 12]: 6.41%; %-inhibition of EML4-ALK [8, 13]: -1.11%; %-inhibition of LYNb ([8]; kinase LYNb, compound at 1 μM): 86%; %-inhibition of NPM1-ALK ([8]; kinase NPM1-ALK, 1 μM): -3%; %-inhibition of PKCβ2 ([8]; kinase PKCβ2, 1 μM): -3%; %-inhibition of SRM ([8]; kinase SRM, 1 μM): 100%; %-inhibition of TAK1-TAB1 ([8]; kinase TAK1-TAB1, 1 μM): 14%
Cc1nc(Nc2ncc(C(=O)Nc3c(C)cccc3Cl)s2)cc(N2CCN(CCO)CC2)n1 [dasatinib] | 100 | – | – | – | 2.64 | – | – | – | – | – | – | – | – | -6 | -1.85 | – | – | –
C#Cc1cccc(Nc2ncnc3cc(OCCOC)c(OCCOC)cc23)c1 [erlotinib] | – | – | – | – | – | 19 | 5 | – | – | 26 | 60 | 6 | 11 | – | – | – | – | %-inhibition of FYN ([1]; 1 µM): 34%; %-inhibition of FRK ([3]; 1 µM): 41%; %-inhibition of TYRO3 ([10]; 1 µM): 20%; %-inhibition, CaMK2β ([9]; 1 µM): -6%; %-inhibition of NDR1 ([4]; 1 µM): 3.48%; %-inhibition of DDR2 ([5]; 1 µM): 43%; %-inhibition of HIPK1 ([6]; 1 µM): 12%; %-inhibition of MARK1 ([7]; 1 µM): 11%
Cc1ccc(Nc2nccc(N(C)c3ccc4c(C)n(C)nc4c3)n2)cc1S(N)(=O)=O [pazopanib] | – | – | – | 96 | 10 | 21 | -4.34 | – | – | 27 | 85 | 4.55 | 63 | -2.29 | 2.49 | 2.19 | 27 | –
Cc1ccc(C(=O)Nc2ccc(CN3CCN(C)CC3)c(C(F)(F)F)c2)cc1C#Cc1cnc2cccnn12 [ponatinib] | 101 | 101 | 100 | 101 | 22 | – | – | – | – | – | – | – | – | – | – | – | 45 | –
CCN(CC)CCNC(=O)c1c(C)[nH]c(/C=C2\C(=O)Nc3ccc(F)cc32)c1C [sunitinib] | 88 | – | – | – | 79 | – | – | – | – | – | – | – | – | – | 9 | – | 98 | –
COc1cc2c(Nc3ccc(Br)cc3F)ncnc2cc1OCC1CCN(C)CC1 [vandetanib] | 88 | – | 79 | 101 | -8 | 28 | 6 | 100 | 85 | 20 | 91 | -2.13 | 39 | -4.23 | -9 | -14 | 94 | –
